Laboratory results as given in patent publication US12529701B2, “Method for predicting sensitivity of cancer cell to GPX4 inhibitor” (Chugai Seiyaku Kabushiki Kaisha, priority 2019, dated 2026).

Legend:
[1] = tested on: cancer cell lines shown in Table 4; assay: Test for inhibition of activity of GPX4 1 (cell growth inhibition under a GPX4 inhibitor); assay type: cell-based, human; settings: cancer cell having a suppressed function of SMARCA4
Protocol: In each cancer cell line, cell growth inhibition activity under a GPX4 inhibitor was evaluated. As the GPX4 inhibitor, ML210 (CAS No: 1360705-96-9) which is a low-molecular GPX4 inhibitor reported to be a compound inhibiting the enzymatic activity of GPX4:
These compounds were each added, and each cell line was seeded at 100 μL/well so as to attain the seeding density (2) shown in Table 5 below. The cells were cultured for 7 days, the intracellular ATP which is a marker for cell survival was then measured using Cell Titer-Glo 2.0 Cell Viability Assay (manufactured by Promega Corporation), and the cell survival rate was calculated, where the intracellular ATP level in each cancer cell line given only a solvent (dimethyl sulfoxide (DMSO) or water) for the compound and cultured for 7 days was defined as 100%.

SK-HEP-1 tumor = assay: Test for drug efficacy of ML210 on SK-HEP-1 tumor-bearing mouse; assay type: in vivo, BALB/c-nu/nu mice; settings: SK-HEP-1 tumor-bearing mice; oral, once a day, 100 mg/kg from day 11; measured days 11, 14 and 18; versus vehicle; FIG. 9
Protocol: For examining the efficacy of the GPX4 inhibitor on SWI/SNF complex factor-deficient cancer in vivo, a test was conducted in which ML210 was administered to mice in which SK-HEP-1 (human cancer cell line suppressing a function of SMARCA4) was transplanted (SK-HEP-1 tumor-bearing mice). […]
Subsequently, to mice (SK-HEP-1 tumor-bearing mice) for which the engraftment of the tumor (cancer cell) had been confirmed, a dosing liquid obtained by suspending ML210 at a predetermined concentration in a mixed liquid of 10% dimethyl sulfoxide (manufactured by Wako Company, product code: 043-07216), 10% Cremophor (manufactured by Sigma-Aldrich Co. LLC, product code: C5135), 15% polyethylene glycol 400 (manufactured by Wako Company, product code: 161-09065) and 15% hydroxypropyl-β-cyclodextrin (manufactured by Nihon Shokuhin Kako Co., Ltd., product code: 7585-39-9) was orally administered at a predetermined dose (20 mL/kg) once a day to a daily dosage of 100 mg/kg upon the confirmation of the implantation. The day of inoculation of SK-HEP-1 was defined as day 0, administration of ML210 was started on day 11, and the volume of the tumor was measured on days 11, 14 and 18. The minor diameter and the major diameter of the tumor were measured using an electronic caliper (manufactured by Mitutoyo Corporation, product code: CD-15AX), and the volume of the tumor was calculated by the […].

Row | Structure (SMILES) | cell death and cell growth suppression [1] | volume of the tumor (SK-HEP-1 tumor)
1 | Cc1onc(C(=O)N2CCN(C(c3ccc(Cl)cc3)c3ccc(Cl)cc3)CC2)c1[N+](=O)[O-] [ML210] | markedly suppress cell growth | an increase in volume of the tumor was suppressed as compared to the group given the vehicle
2 | COC(=O)c1ccc([C@H]2c3[nH]c4ccccc4c3C[C@H](C(=O)OC)N2C(=O)CCl)cc1 [RSL3] | markedly suppress cell growth | 
